These results are taken from patent EP0073143B1, “Novel complex amido and imido derivatives of carboxyalkyl peptides and thioethers and ethers of peptides” (priority 1981, dated 1983).

Series [1] has as its target T1, human plasma angiotensin converting enzyme (Homo sapiens, UniProt P12821).
T1 construct: partially-purified human plasma angiotensin converting enzyme; from tissue; host or cells: human plasma
As to the kind of experiment: In vitro assay of inhibition of angiotensin converting enzyme. It counts as biochemical. The following applies: [3H]benzoyl-Gly-His-Leu 80 nM, 37°C, 15 minutes; order of magnitude only; read-out: I50. As for the experimental part:
To this was added 100 microliters of buffered substrate [S], [^3H]benzoyl-[…], 80 nM (25 Ci/mmole). The reaction was started by adding 100 microliters of partially-purified human plasma angiotensin converting enzyme, or 100 microliters of buffer alone. The concentration of enzyme [E] used was that required to hydrolyze 8-12% of substrate when incubated at 37°C for 15 minutes. The scintillation vials and their contents were incubated at 37°C for 15 minutes, and the reactions were stopped by adding 200 microliters of 0.5M HCI to each vial. The radioactive reaction product, [^3H]benzoyl-Gly(hippuric acid), was separated from unhydrolyzed substrate by adding and mixing (by inversion) 3 ml of Ventrex Cocktail No. 1 (Ventrex Laboratories, Inc., Portland, Maine), a fluid disclosed in copending U.S. patent application No. 184,653, filed September 6, 1980. Extractable ^3H was quantified by liquid scintillation counting. Substrate, in c.p.m., was quantified by scintillation counting of a vial containing 100 μl of buffered substrate in 5 ml of RIAfluor (New England Nuclear). The reaction mixture containing all constituents except for inhibitor was termed the control (C). The reaction mixture lacking enzyme and inhibitor was called the blank (B). Reaction mixtures containing inhibitor (varied over the range of 10^-4-10^-12M) were called the test (T) reactions. Under the conditions of this assay, the reaction obeys first order enzyme kinetics, thus the concentration of inhibitor required to inhibit the rate of hydrolysis by half (150) approximate the Ki value. The results were estimated by use of the formula: [formula] where C = control c.p.m.; B = blank c.p.m.; [S] = substrate c.p.m. The factor 100 converts fractional substrate utilization into percentage utilization, and 1/15 minute connects to percentage substrate utilization/minute. Thus, [E] is enzyme activity in percentage substrate utilization/minute. By substituting T for C, hydrolysis rates are computed for the test reaction mixtures. By comparing a given test rate against the control rate, the degree of inhibition can be computed.

Series [2] has as its system effects of 400 ng/kg of angiotensin I on mean arterial blood pressure. The series can be described thus: Intravenous effectiveness: effect on the pressor response to angiotensin I in anesthetized rats. It counts as in vivo. The following applies: de-iodo analog compared with the iodo compound. As for the experimental part: Rats (190-290 g body weight) were fasted overnight and then anesthetized with intraperitoneal pentobarbital, 50-60 mg/kg. Tracheostomy was performed and the animals were ventilated mechanically. A cannula was inserted into a femoral vein for injection of angiotensin I, and a second cannula was inserted into a common carotid artery for direct measurement of arterial blood pressure. Heparin, 1,000 units, was injected via the femoral vein to prevent coagulation. Blood pressure was measured with a pressure transducer connected to a polygraph. The rats were injected with […] of angiotensin I in 20 µl of 0.9 g% NaCI, an amount of angiotensin I sufficient to raise mean arterial blood pressure by approximately 48 mm Hg.
After the responsiveness of a given rat to angiotensin I was established, the named compound at 0.5 micromole/kg (drug dissolved in 15 microliters of 0.9% NaCl) was given intravenously. At timed intervals, the effects of 400 ng/kg of angiotensin I on mean arterial blood pressure were tested. Results are shown below:
Experiments were carried out using rats according to Example 32.

Series [3] in a line: Loss of activity of an aqueous solution on standing. It is filed as physicochemical. To be noted: fresh aqueous solution 1 mg per ml, pH of about 8, standing for as little as 30 minutes.
For series [4], the system named is man. The following applies: 13 patients treated, all biopsies; Hoorntje et al.; cited from earlier work.

T1 sequence (P12821 30-1232 limits assumed): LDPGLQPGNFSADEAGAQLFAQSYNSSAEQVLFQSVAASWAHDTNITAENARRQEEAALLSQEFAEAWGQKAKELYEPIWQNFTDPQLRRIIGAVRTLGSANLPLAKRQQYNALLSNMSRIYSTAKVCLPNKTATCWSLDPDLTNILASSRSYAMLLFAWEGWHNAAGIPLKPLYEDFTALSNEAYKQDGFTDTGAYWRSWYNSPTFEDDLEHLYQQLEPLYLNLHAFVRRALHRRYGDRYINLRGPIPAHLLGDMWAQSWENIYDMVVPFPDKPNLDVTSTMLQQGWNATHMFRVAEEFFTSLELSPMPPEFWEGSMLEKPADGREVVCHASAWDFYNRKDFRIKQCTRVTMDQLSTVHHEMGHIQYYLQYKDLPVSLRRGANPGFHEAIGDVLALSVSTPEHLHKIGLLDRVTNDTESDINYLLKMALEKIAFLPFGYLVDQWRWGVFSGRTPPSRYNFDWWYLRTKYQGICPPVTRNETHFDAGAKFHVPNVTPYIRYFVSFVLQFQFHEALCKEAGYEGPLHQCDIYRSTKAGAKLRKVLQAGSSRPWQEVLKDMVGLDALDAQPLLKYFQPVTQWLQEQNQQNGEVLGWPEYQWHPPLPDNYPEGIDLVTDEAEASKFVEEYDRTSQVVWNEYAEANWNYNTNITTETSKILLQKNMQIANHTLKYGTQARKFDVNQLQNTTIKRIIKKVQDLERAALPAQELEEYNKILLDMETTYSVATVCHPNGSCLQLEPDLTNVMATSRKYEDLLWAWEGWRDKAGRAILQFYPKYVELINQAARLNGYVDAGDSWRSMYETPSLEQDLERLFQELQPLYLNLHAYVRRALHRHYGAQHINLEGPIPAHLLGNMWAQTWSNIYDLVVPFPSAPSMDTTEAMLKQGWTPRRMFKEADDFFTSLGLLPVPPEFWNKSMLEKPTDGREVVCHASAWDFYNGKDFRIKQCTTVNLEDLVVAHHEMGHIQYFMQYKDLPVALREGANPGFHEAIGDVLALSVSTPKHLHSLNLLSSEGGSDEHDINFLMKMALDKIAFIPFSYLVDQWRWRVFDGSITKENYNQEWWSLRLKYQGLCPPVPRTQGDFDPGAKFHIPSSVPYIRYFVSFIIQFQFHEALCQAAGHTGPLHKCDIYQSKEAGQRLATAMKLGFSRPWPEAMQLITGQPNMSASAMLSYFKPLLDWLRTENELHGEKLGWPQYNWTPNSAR

Consider `CC(N[C@@H](CCC(=O)Nc1ccc(I)cc1)C(=O)O)C(=O)N1CCC[C@H]1C(=O)O` (stereo partly drawn) [N-[L-1-carboxy-3-(carbo-4-iodo-anilide)propyl] Alanyl-L-Proline], for which the IC50 in series [1] was roughly 1 nM. The “increase of intravenous effectiveness on removal of iodine” value in series [2] was “three-fold”.

With `C[C@H](CS)C(=O)N1CCC[C@H]1C(=O)O` [SQ14225, D-3-mercapto-2-methylpropanoyl-L-proline], the “activity of aqueous solution upon standing” value in series [3] is “substantially less active”. Moreover, the renal biopsies result in series [4] is “evidence of immune complex deposition along the glomerular basement membranes”. As for `CC(N[C@@H](CCC(=O)Nc1ccccc1)C(=O)O)C(=O)N1CCC[C@H]1C(=O)O` (stereo partly drawn) [N-[L-1-carboxy-3-(carbo-anilide)propyl]-Alanyl-L-Proline], in series [1], the IC50 is roughly 1 nM. Same read-out and setting: the same measure for `CC(N[C@@H](CC(=O)N1CCCC1)C(=O)O)C(=O)N1CCC[C@H]1C(=O)O` (stereo partly drawn) [N-[L-1-carboxy-2-(carbopyrrolide)ethyl]-Alanyl-L-Proline]: roughly 100 nM.
